Experimental data reported in ChEMBL document CHEMBL1155535, “Synthesis and biological evaluation of tricyclic anilinopyrimidines as IKKbeta inhibitors” (Bioorg Med Chem Lett, 2010).
Converted amounts (≈) assume the structure as drawn.

Tests used:
[1] = Aqueous solubility in at pH 7.4
[2] = system: LoVo; assay: Cytotoxicity against human LoVo cells assessed as growth inhibition; assay type: functional, cell-based
[3] = Membrane permeability by PAMPA assay
[4] = biological target: T1, Inhibitor of nuclear factor kappa-B kinase subunit beta (Homo sapiens, UniProt O14920); assay: Inhibition of IKK-beta expressed in human HeLa cells transfected with pNFkappaB-luciferase assessed inhibition of TNF-alpha-induced NF-kappaB expression by luciferase reporter gene assay; assay type: cell-based
T1 sequence (O14920 whole entry): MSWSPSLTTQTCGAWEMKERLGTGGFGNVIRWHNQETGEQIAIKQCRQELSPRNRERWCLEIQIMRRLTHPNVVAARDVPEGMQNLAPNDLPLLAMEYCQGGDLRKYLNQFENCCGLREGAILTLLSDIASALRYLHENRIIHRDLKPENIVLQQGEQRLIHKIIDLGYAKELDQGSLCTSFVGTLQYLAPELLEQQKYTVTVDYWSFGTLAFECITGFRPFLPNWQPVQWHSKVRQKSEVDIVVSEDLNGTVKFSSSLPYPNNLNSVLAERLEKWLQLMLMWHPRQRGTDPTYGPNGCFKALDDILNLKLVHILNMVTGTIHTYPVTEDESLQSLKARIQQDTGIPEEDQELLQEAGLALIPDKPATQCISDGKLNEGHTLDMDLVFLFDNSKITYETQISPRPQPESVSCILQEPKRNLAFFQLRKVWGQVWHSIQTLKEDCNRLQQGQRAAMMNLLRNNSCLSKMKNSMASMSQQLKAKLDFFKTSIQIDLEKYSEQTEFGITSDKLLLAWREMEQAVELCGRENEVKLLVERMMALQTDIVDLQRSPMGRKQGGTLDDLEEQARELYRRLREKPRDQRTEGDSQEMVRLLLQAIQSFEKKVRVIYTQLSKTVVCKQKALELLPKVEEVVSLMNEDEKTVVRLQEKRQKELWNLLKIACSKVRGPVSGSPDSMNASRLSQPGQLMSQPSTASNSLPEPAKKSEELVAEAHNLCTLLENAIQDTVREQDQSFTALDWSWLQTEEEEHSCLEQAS

[5] = biological target: T1, Inhibitor of nuclear factor kappa-B kinase subunit beta; assay: Inhibition of FLAG-tagged IKK-beta after 30 mins
[6] = Apparent permeability from basolateral to apical side in human Caco-2 cells
[7] = Apparent permeability from apical to basolateral side in human Caco-2 cells

| Compound | solubility [1] | Papp [3] | IC50 [4] | IC50 [5] | Papp B→A [6] | Papp A→B [7] | IC50 [2] |
| --- | --- | --- | --- | --- | --- | --- | --- |
| COc1ccc(-c2ccnc(Nc3ccc(S(N)(=O)=O)cc3)n2)cc1 | 2.3 µg/mL (≈ 6.45 µM) | < 0.01 ×10⁻⁶ cm/s | 640 nM | 40 nM |  |  | 2550 nM |
| COc1ccc2c(c1)CCc1cnc(Nc3ccc(S(N)(=O)=O)cc3)nc1-2 | < 1 µg/mL | 1.8 ×10⁻⁶ cm/s | 420 nM | 550 nM |  |  | 750 nM |
| CC(C)(C)CC(=O)Nc1ccc(-c2ccnc(Nc3ccc(S(N)(=O)=O)cc3)n2)cc1 | < 1 µg/mL | 0.6 ×10⁻⁶ cm/s | 2460 nM | 10 nM |  |  | 790 nM |
| NS(=O)(=O)c1ccc(Nc2ncc3c(n2)-c2ccc(NC(=O)C4CCCC4)cc2CC3)cc1 |  |  | 1570 nM | 2200 nM |  |  | 830 nM |
| CC(C)C(=O)Nc1ccc2c(c1)CCc1cnc(Nc3ccc(S(N)(=O)=O)cc3)nc1-2 |  |  | 1460 nM | 1110 nM |  |  | 660 nM |
| NS(=O)(=O)c1ccc(Nc2ncc3c(n2)-c2ccccc2CC3)cc1 | 7 µg/mL (≈ 19.9 µM) | 2.92 ×10⁻⁶ cm/s | 1430 nM | 1830 nM |  |  | 1050 nM |
| NS(=O)(=O)c1ccc(Nc2ncc3c(n2)-c2ccccc2CCC3)cc1 |  |  | 4060 nM |  |  |  | 4180 nM |
| NS(=O)(=O)c1ccc(Nc2ncc3c(n2)-c2ccc(NC(=O)Cc4cccs4)cc2CC3)cc1 | 6 µg/mL (≈ 12.2 µM) | 0.51 ×10⁻⁶ cm/s | 830 nM | 510 nM |  |  | 290 nM |
| NS(=O)(=O)c1ccc(Nc2ncc3c(n2)-c2ccc(NC(=O)Cc4ccsc4)cc2CC3)cc1 |  |  | 970 nM | 310 nM |  |  | 490 nM |
| NS(=O)(=O)c1ccc(Nc2nccc(-c3ccccc3)n2)cc1 | 1 µg/mL (≈ 3.06 µM) | 2.26 ×10⁻⁶ cm/s |  | 20200 nM |  |  | 3280 nM |
| NS(=O)(=O)c1ccc(Nc2nccc(-c3ccsc3)n2)cc1 |  |  | 1700 nM | 180 nM |  |  | 2620 nM |
| NS(=O)(=O)c1ccc(Nc2ncc3c(n2)-c2ccc(NC(=O)Cc4ccccc4)cc2CC3)cc1 | 9 µg/mL (≈ 18.5 µM) | 3.37 ×10⁻⁶ cm/s | 1790 nM | 2380 nM |  |  | 190 nM |
| NS(=O)(=O)c1ccc(Nc2nccc(-c3ccc(NC(=O)Cc4cccs4)cc3)n2)cc1 | < 1 µg/mL | 0.3 ×10⁻⁶ cm/s | 6910 nM | 20 nM |  |  | 250 nM |
| CN(C)CCCNS(=O)(=O)c1ccc(Nc2ncc3c(n2)-c2ccsc2CC3)cc1 |  |  | 620 nM | 780 nM |  |  | 1100 nM |
| O=S(=O)(NCCO)c1ccc(Nc2ncc3c(n2)-c2ccsc2CC3)cc1 |  |  | 1960 nM | 1220 nM |  |  | 800 nM |
| NS(=O)(=O)c1ccc(Nc2ncc3c(n2)-c2ccsc2CC3)cc1 | < 1 µg/mL | 0.38 ×10⁻⁶ cm/s | 800 nM | 790 nM | 20.7 ×10⁻⁶ cm/s | 34 ×10⁻⁶ cm/s | 330 nM |
| CN(C)CCCNS(=O)(=O)c1ccc(Nc2nccc(-c3ccsc3)n2)cc1 |  |  | 1060 nM | 170 nM |  |  | 3380 nM |
| NS(=O)(=O)c1ccc(Nc2ncc3c(n2)-c2ccc(NC(=O)c4ccco4)cc2CC3)cc1 |  |  |  | 2230 nM |  |  | 1060 nM |
| Cc1ccc(-c2ccnc(Nc3ccc(S(N)(=O)=O)cc3)n2)s1 | 3 µg/mL (≈ 8.66 µM) |  | 1710 nM | 19 nM |  |  | 1660 nM |

Second part, led by results:

| solubility [1] | Papp [3] | IC50 [4] | IC50 [5] | Papp B→A [6] | Papp A→B [7] | Compound | IC50 [2] |
| --- | --- | --- | --- | --- | --- | --- | --- |
|  |  | 8250 nM | 1590 nM |  |  | CC(C)=CC(=O)Nc1ccc2c(c1)CCc1cnc(Nc3ccc(S(N)(=O)=O)cc3)nc1-2 | 560 nM |
|  |  |  | 280 nM |  |  | COC(=O)CC(=O)Nc1ccc2c(c1)CCc1cnc(Nc3ccc(S(N)(=O)=O)cc3)nc1-2 | 620 nM |
|  |  | 1600 nM | 1830 nM |  |  | COc1ccc(CC(=O)Nc2ccc3c(c2)CCc2cnc(Nc4ccc(S(N)(=O)=O)cc4)nc2-3)cc1 | 730 nM |
|  |  | 6400 nM | 1940 nM |  |  | CC(C)CC(=O)Nc1ccc2c(c1)CCc1cnc(Nc3ccc(S(N)(=O)=O)cc3)nc1-2 | 380 nM |
| 1 µg/mL (≈ 2.18 µM) | < 0.01 ×10⁻⁶ cm/s | 4470 nM | 50 nM |  |  | NS(=O)(=O)c1ccc(Nc2nccc(-c3ccc(NC(=O)Cc4ccccc4)cc3)n2)cc1 | 180 nM |
|  |  | 3390 nM | 130 nM |  |  | O=S(=O)(NCCO)c1ccc(Nc2nccc(-c3ccsc3)n2)cc1 | 4110 nM |
| > 100 µg/mL | 2.4 ×10⁻⁶ cm/s | 770 nM | 230 nM | 13.2 ×10⁻⁶ cm/s | < 1 ×10⁻⁶ cm/s | CN(C)CCNS(=O)(=O)c1ccc(Nc2nccc(-c3ccsc3)n2)cc1 | 2810 nM |
| 36 µg/mL (≈ 83.8 µM) | 1.54 ×10⁻⁶ cm/s | 510 nM | 770 nM | 3.08 ×10⁻⁶ cm/s | < 1 ×10⁻⁶ cm/s | CN(C)CCNS(=O)(=O)c1ccc(Nc2ncc3c(n2)-c2ccsc2CC3)cc1 | 680 nM |
| 9 µg/mL (≈ 19.3 µM) | 2.3 ×10⁻⁶ cm/s | 1360 nM | 820 nM |  |  | CC(C)(C)CC(=O)Nc1ccc2c(c1)CCc1cnc(Nc3ccc(S(N)(=O)=O)cc3)nc1-2 | 370 nM |
